Data reported in US8951527B2, “Radioprotectants targeting thrombospondin-1 and CD47” (The United States of America, as represented by the …, priority 2008, dated 2015).

Key:
B16F10 melanoma tumors = assay: Syngeneic B16F10 melanoma tumor growth after irradiation; format: in vivo, mouse; conditions: B16F10 in C57BL/6 mice
Procedure: FIG. 19. CD47 suppression enhances re-growth delay in irradiated syngeneic B16 melanoma and squamous cell carcinoma tumors but increases radioresistance of B16 cells in vitro. C57BL/6 mice were injected with 1×10^6 B16 mouse melanoma cells into their right hindlimbs. Five days later, the mice were randomized into 4 groups (12 mice in each group) where they either received injections of CD47 morpholino (10 μM) in sterile PBS, PBS, or no injection. The two groups receiving injections were then subjected to radiation (10 Gy) to the effected hindlimb 48 hours later. The other two groups served as controls and consisted of tumor alone or tumor subjected to only the morpholino. Tumors were followed post-radiation for 30 days, measuring their volume every 6 days (FIG. 19A). Results are presented as the mean±SD of 12 mice in each treatment group and are representative of 3 independent studies. These same experimental treatment conditions were tested using another syngeneic tumor cell line (SCC VII) in C3H mice and followed for 15 days where similar results were found after injecting 1.5×10^5 cells (FIG. 19B). Results are presented as the mean±SD of 10 mice (C3II) in each treatment group and are representative of 3 independent studies. B16 mouse melanoma cells were plated on 96-well plates in standard growth medium. Cells were treated with peptide 7N3 or CD47 morpholino and received a radiation dose of 10 Gy (FIG. 19C; *p<0.05, #p<0.01). Cell (mitochondrial) viability was measured 48 hours post radiation using the MTT assay.
Tumor Establishment and Irradiation. C57 B16 mice were injected in the right hindlimb with 1×10^6 B16F10 melanoma cells, and tumors were allowed to establish for 1 week. After tumor incorporation, the hind limbs were treated with either the CD47 morpholino or sterile phosphate buffered saline (PBS). Forty-eight hours later, all mice were subjected to right hind limb irradiation (10 Gy). The mice were observed and tumor size determined twice a week by the same individual until lesion size necessitated animal euthanasia. […]

C57BL/6 mice = assay: Laser Doppler hind limb blood flow after NO challenge, 8 weeks post-radiation; format: in vivo, mouse; conditions: intramuscular 10 μM 48 hours before 25 Gy, 8 weeks post-injury
Procedure: FIG. 18. Targeting CD47 Protects Composite Tissue From Radiation-Induced Vascular Damage. Age matched male C57BL/6 mice received 25 Gy to both hind limbs. Forty-eight hours prior to irradiation the right hind limb was treated by direct intra-muscular injection with the CD47 morpholino (750 μl at 10 μM concentration). The opposite (control) limb received nothing. Eight weeks post-radiation hind limb blood flow changes to a nitric oxide (NO) challenge (DEA/NO 100 nmol/g body weight via rectal instillation) was assessed via Laser Doppler imaging (FIG. 18A). In other experiments, the opposite (control) limb received injection of either missense oligonucleotide or sterile PBS with similar results (not shown). Laser Doppler was performed under 1.5% isoflurane inhalation anesthesia with animal core temperature held constant at 36.5° C. […]
Laser Doppler analysis: Hind limb flow was measured using laser Doppler imaging (MoorLD1-2λ, Moor Instruments, Devon, England). […] Core temperature was monitored by rectal probe and was further controlled with a heat lamp. […] After equilibration to the experimental set-up baseline, hind limb blood flow was measured. […] Results are expressed as the change percent control from baseline of the ROI.
Laser Doppler Analysis: Hind limb blood flow was measured using laser Doppler imaging as described above. […]

HUVEC = HUVEC proliferation post-radiation (BrdU incorporation); format: cell-based, human; conditions: treated 48 hours before 10 Gy, over 1 week (FIG. 14)
Procedure: FIG. 14. TSP1 and CD47 antibodies or antisense suppression of CD47 maintain proliferation of irradiated HUVEC. HUVEC were plated in 96-well plates in growth medium and treated with CD47 morpholino (FIG. 14A; *p<0.05, #p<0.01) TSP1, or CD47 antibodies (FIG. 14B; *p<0.05, #p<0.01) and exposed to 10 Gy irradiation 48 hours later. Cell proliferation at the indicated times post-radiation was determined by intracellular BrdU incorporation. Experiments were repeated 3 times, and results presented as the mean±SD.
FIG. 15. HUVEC protected by radioprotective agents are both viable and proliferate at a better rate than untreated cells in culture. Proliferation was assessed by quantifying incorporation of bromodeoxyuridine (BrdU) into newly synthesized DNA using a BrdU Cell Proliferation Assay. HUVEC were seeded into 96 well plates for 24 hours at 37° C., then treated with either antibody A6.1 or B6H12 or peptide 7N3. The treated cells were irradiated at 40 Gy 1 hour later. Control and irradiated plates were assayed for BrdU uptake over 96 hours post-radiation. The assay was performed according to the manufacturer's protocol, and the plates were read at 420 nm.
Cell proliferation assay: Proliferation was assessed by quantifying incorporation of bromodeoxyuridine (BrdU) into newly synthesized DNA using a BrdU Cell Proliferation Assay (Calbiochem, La Jolla, Calif.). Primary murine wild type, TSP1, TSP2, and CD47 null lung endothelial cells were seeded into 96 well plates at 5×10^4 cells/well density. After 24 hours incubation at 37° C. treatment groups were irradiated at 40 Gy. Control and irradiated plates were assayed for BrdU uptake over 24 hours starting at 48 to 168 hours post-radiation. The assay was performed according to the manufacturer's protocol, and the plates were read at 420 nm.
Proliferative capacities were also determined in endothelial cells exposed to high doses of radiation of 40 Gy. […] The assay was performed according to the manufacturer's protocol, and the plates were read at 420 nm.

CGTCACAGGCAGGACCCACTGCCCA (all phosphorodiamidate morpholino (PMO)) [CD47 morpholino, CD47 targeting morpholino oligonucleotide]
tumor ablation / re-growth delay with irradiation (B16F10 melanoma tumors; morpholino 48 hours before 10 Gy): dramatically increased tumor ablation | tumor growth without irradiation (B16F10 melanoma tumors; morpholino alone): only slightly delayed tumor growth | normal tissue injury in tumor-bearing irradiated limbs (B16F10 melanoma tumors; morpholino then 10 Gy): minimal alopecia and no other morphologic or histologic evidence of tissue injury | vascular perfusion in response to DEA/NO challenge (laser Doppler) (C57BL/6 mice): enhanced vascular perfusion | proliferation (BrdU incorporation / DNA synthesis) after 10 Gy (HUVEC): maintained proliferation
